Test results: patent US20070167349A1, “Estrogen cancer therapy” (Cell Therapeutics, Inc., priority 2005, published 2007)

How the values were obtained:
[1] = system: HT-29 human CRC xenograft tumor model; experiment: Effect of circulating estrogen on tumor growth; type: in vivo, female CD nu/nu mice; conditions: increased levels of estrogen, s.c. controlled release pellets 0.17, 0.36, 0.72 mg/60 days
ERβ = target: T1, ERβ (Homo sapiens, UniProt Q92731); experiment: ERβ expression (western blot) and activation (RT-PCR of E-Cadherin, Id-2) in xenograft tumors; type: in vivo; conditions: HT-29 and H460 xenograft tumors, E2 supplements
T1 construct: proteins were extracted by homogenization in RIPA buffer; from tissue; host or cells: HT-29 and H460 human xenograft tumours in female CD nu/nu mice
Protocol: ERα, ERβ, E-Cadherin and Id-2 gene expression was determined by RT-PCR, relating their RNA expression to that of GAPDH gene. Total RNA extracted from tumors was reversely transcribed by Thermoscript RT-PCR System (INVITROGEN). The cDNA generated was used as template for PCR with primers specific for ERα and β, E-Cadherin and Id-2.
Western blot analysis was performed as follows: proteins were extracted by homogenization in RIPA buffer and their content was determined by Bio-Rad Protein Assay. Protein aliquots were separated by size on 10% SDS-PAGE and transferred to nitrocellulose membrane. Immunodetection was performed using: anti-ERa Polyclonal Ab (HC-20, Santa Cruz Biotechnologies), […] Polyclonal Ab (06-629, Upstate Biotechnologies), anti-α-Actin (Sigma), and anti-α-Tubulin (Santa CruzBiotechnologies).
The effect of estradiol on ERβ expression in HT-29 human CRC and H460 human NSCLC was analyzed by western blot (FIGS. 9 and 10, respectively.).
The effect of estradiol on ERβ activation in HT-29 human CRC and H460 human NSCLC cells was analyzed by RT-PCR, where increased expression of the E-Cadherin gene (in HT-29 cells) and increased expression of the Id-2 gene (in H460 cells) is indicative of ERP activation (FIGS. 11 and 12, respectively.).

cathepsin B = experiment: Cathepsin B activity assay in tumor homogenate (Z-Arg-Arg-AMC); type: in vivo; conditions: HT-29 tumors; increased levels of estrogen, s.c. pellets
Protocol: Cathepsin B activity assay was performed as follows: proteins were extracted by homogenization in cathepsin B buffer in ratio of 1 ml of buffer per 100 mg of tissue. The test utilized the ability of cathepsin B to digest the synthetic substrate Z-Arg-Arg-AMC. Released AMC was determined fluorometrically at excitation wavelength 390 nm and emission wave-length 460 nm. The activity of cathepsin B was quantified versus an AMC standard curve.

NSCLC [2] = experiment: Phase III study (STELLAR 3): CT-2103/PPX + carboplatin vs paclitaxel + carboplatin, overall survival by estrogen level; type: in vivo, human; conditions: CT-2103 210 mg/m^2 + carboplatin AUC 6 vs paclitaxel 225 mg/m^2 + carboplatin AUC 6
From the text: The experiments and results presented in example 1 describe the correlation between estrogen levels and treatment with CT-2103 versus paclitaxel, as measured by overall survival (OS). The data depicted in FIGS. 1 and 2 were derived from a multinational, phase III, open-label study. […] Randomization was stratified to minimize potential imbalances between the 2 treatment arms. After they were selected for the study, patients were stratified by disease stage (IV vs other), gender, geographic location (US vs. Western Europe and Canada vs. rest of the world), and history of brain metastases (yes vs. no).
From the initial sample set, a subset consisting of either high or low estrogen women was analyzed. […] Estrogen levels in women were determined by a competitive immunoassay (e.g., DPC […] 2000 Analyzer, NY; DPC […] Analyzer, Ireland). […]
Patients received CT-2103/carboplatin or paclitaxel/carboplatin, by intravenous infusion, on day 1 of each 21-day cycle for a total of 6 cycles. Toxicities were evaluated at each patient visit. Hematology, clinical chemistry, and coagulation parameters were evaluated before and during the study period. […] The efficacy and safety outcomes of this study were monitored by an independent Data Monitoring Committee (DMC).
Efficacy of the treatments was determined by evaluation of tumor burden according to RECIST. […]

[3] = system: NCI-H460 human lung carcinoma; conditions: H460 tumor cells
[4] = system: HT-29 human CRC xenograft tumor model; conditions: associated with increased cathepsin B activity (E2 supplemented)
Protocol: Antitumor activity parameters were determined as follows: • 1. Tumor weight inhibition % (TWI %) equals 100 minus (TW of treated divided by TW of control) times 100, which was evaluated at day 60 from pellet implant. • 2. Tumor growth delay (TGD): TGD equals TG Treated minus TG Control, where TG is the mean time, in days, for the tumor to reach a weight of 1 gram (g). • 3. Log cell kill (LCK) was calculated by the formula: LCK equals ((TGD 1 g) divided by 3.32) times DT, where DT is the time (days) necessary for the tumor to double in volume, in control and experimental groups.
Statistical analyses were performed using one-way ANOVA Bonferroni post test.

NSCLC [5] = experiment: Composite analysis of two phase III studies (STELLAR 3 and STELLAR 4): survival by sex and age, PPX vs control; type: in vivo, human; conditions: for HR: PPX vs CONTROL
Protocol: Two phase III studies, enrolling a total of 781 patients with NSCLC and a poor performance status (PS2), were conducted. […] In order to study the effect of sex and estrogen on survival among the various treatment groups, the results from both phase III clinical trials were combined and a composite analysis performed.
Functional menopausal status was assigned based on age and pretreatment estradiol levels, when available. The study was a composite of results from both clinical studies.

T1 sequence (Q92731 whole entry): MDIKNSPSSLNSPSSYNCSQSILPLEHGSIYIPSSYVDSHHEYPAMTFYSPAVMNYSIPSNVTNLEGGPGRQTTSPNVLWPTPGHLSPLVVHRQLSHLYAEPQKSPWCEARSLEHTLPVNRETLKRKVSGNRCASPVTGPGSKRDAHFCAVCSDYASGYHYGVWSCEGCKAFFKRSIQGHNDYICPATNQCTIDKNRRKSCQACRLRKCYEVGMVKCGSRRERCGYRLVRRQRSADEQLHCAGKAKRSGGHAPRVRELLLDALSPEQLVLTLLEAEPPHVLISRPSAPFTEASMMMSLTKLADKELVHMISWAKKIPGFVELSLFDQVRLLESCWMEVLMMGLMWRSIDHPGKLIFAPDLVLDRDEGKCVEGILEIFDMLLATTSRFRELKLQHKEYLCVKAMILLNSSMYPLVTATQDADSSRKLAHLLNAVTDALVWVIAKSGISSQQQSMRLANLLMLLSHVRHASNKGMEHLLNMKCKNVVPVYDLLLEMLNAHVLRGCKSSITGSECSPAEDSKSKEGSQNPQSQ

Compound | tumor weight [1] | ERβ activation and/or expression (ERβ) | cathepsin B activity (cathepsin B) | overall survival (OS) (NSCLC [2]; women with postmenopausal (low) estrogen levels) | overall survival (OS) (NSCLC [2]; women with premenopausal (high) estrogen levels) | mechanism of uptake of intact PPX into the cellular compartment [3] | PPX antitumor activity [4] | OS (NSCLC [5]; FEMALE) | HR (NSCLC [5]; FEMALE) | OS (NSCLC [5]; MALE) | HR (NSCLC [5]; MALE) | OS (NSCLC [5]; women under 55 years of age, PPX vs control arm)
C[C@]12CC[C@@H]3c4ccc(O)cc4CC[C@H]3[C@@H]1CC[C@@H]2O [17β estradiol, 17β Estradiol] | increases | induce ERβ activation and/or expression | increases | – | – | – | – | – | – | – | – | –
paclitaxel poliglumex [PPX] | – | – | – | no apparent effect on survival | improved outcome | energy-dependent endocytosis, in a dose- and time-dependent manner | enhanced | 285 days | 0.70 | 220 days | 1.05 | prolonged
